{"source": "patent US9492471B2", "about": "“Methods of treating a disease or disorder associated with Bruton'S Tyrosine Kinase” (Celgene Avilomics Research, Inc., priority 2013, dated 2016)", "key": {"EPHB4": {"molecular_target": "T1, EPHB4 (Homo sapiens, UniProt P54760)", "T1 construct": "purchased Reaction Biology Corp", "T1 sequence (P54760 16-987)": "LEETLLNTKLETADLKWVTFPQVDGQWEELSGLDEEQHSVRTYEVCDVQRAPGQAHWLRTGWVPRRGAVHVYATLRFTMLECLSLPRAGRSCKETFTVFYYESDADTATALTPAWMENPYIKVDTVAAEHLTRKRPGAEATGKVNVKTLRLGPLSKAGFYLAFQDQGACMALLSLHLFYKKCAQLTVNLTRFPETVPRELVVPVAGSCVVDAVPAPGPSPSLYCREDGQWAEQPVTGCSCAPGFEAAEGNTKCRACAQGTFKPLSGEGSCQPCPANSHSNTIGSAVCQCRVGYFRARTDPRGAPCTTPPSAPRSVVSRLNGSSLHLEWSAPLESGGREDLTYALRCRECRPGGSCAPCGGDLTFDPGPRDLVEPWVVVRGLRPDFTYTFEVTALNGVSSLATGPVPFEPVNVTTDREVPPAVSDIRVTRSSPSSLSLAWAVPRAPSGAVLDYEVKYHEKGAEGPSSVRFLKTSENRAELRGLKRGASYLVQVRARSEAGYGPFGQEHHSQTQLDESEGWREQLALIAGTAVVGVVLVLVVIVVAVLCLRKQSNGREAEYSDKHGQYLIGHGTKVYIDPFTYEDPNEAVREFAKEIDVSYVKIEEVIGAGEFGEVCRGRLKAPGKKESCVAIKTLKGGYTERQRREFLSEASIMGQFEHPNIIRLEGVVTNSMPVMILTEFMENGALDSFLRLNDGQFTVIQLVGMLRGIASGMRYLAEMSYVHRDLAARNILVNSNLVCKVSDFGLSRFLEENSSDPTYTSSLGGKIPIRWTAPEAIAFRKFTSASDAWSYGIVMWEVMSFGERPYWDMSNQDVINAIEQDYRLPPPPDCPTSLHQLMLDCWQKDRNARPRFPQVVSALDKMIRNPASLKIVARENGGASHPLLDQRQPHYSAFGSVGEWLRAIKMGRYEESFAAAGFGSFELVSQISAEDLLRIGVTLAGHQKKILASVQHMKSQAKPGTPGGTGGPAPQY", "assay": "HotSpot kinase profiling", "type": "biochemical", "procedure,_shortened": "(§1)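 Radio-isotope P81 filtration format. Substrate + required cofactors in reaction buffer, kinase added, 2 h RT. Stop, wash with 0.1% phosphoric acid, detect. % inhibition vs DMSO; mean of duplicates where repeated.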"}, "TNK1": {"molecular_target": "T2, TNK1 (Homo sapiens, UniProt Q13470)", "T2 construct": "purchased Reaction Biology Corp", "T2 sequence (Q13470 1-666)": "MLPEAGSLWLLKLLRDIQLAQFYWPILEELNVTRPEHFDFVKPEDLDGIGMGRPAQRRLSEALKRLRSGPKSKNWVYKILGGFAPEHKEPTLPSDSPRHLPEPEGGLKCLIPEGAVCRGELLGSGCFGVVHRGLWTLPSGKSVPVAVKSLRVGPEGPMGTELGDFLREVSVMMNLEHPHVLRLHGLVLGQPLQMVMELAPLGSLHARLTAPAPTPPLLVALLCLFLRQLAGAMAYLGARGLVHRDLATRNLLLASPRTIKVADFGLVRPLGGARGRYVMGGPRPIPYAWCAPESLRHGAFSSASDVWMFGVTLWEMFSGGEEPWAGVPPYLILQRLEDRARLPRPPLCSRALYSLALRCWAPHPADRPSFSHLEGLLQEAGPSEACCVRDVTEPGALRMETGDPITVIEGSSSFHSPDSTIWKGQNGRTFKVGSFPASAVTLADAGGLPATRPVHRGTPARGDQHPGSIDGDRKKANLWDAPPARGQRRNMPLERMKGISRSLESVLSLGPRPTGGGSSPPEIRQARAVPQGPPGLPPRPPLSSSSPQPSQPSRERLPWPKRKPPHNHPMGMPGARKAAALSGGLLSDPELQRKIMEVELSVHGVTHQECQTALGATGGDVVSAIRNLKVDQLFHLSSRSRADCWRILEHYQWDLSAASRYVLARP", "assay": "HotSpot kinase profiling", "type": "biochemical", "procedure,_shortened": "as §1"}, "[1]": {"conditions": "read-out: % Enzyme Activity (relative to DMSO controls) Run 1"}, "[2]": {"conditions": "read-out: % Enzyme Activity (relative to DMSO controls) Run 2"}}, "note": "Where two headings read alike, the source gives them in different places."}
{"molecule": "C=CC(=O)Nc1cccc(Nc2nc(Nc3ccc(OCCOC)c(F)c3)ncc2F)c1", "note": "[Compound 2]", "values": [{"measurement": "inhibition at 3 µM", "setting": "EPHB4", "value": 18.6, "unit": "%"}, {"measurement": "remaining activity at 3 µM", "setting": "EPHB4; [1]", "value": 81.2, "unit": "%"}, {"measurement": "remaining activity at 3 µM", "setting": "EPHB4; [2]", "value": 81.5, "unit": "%"}, {"measurement": "inhibition at 3 µM", "setting": "TNK1", "value": 83.7, "unit": "%"}, {"measurement": "remaining activity at 3 µM", "setting": "TNK1; [1]", "value": 15.9, "unit": "%"}, {"measurement": "remaining activity at 3 µM", "setting": "TNK1; [2]", "value": 16.6, "unit": "%"}]}
